The structures appear in SMILES notation. Like-named read-outs stand apart in the source and are kept apart here.

Assay [1] relates to MDA-MB-231, HeLa, A549 and HT-29 cancer cell lines. Put plainly: Antiproliferative activity stated across the panel of cancer cell lines. Type of assay: cell-based, human. The following applies: for IC50: Homo sapiens. The protocol:
(§1) All the cell lines used in this paper were of human origin and purchased from the American Type Culture Collection (ATCC, Manassas, VA, USA). Colon adenocarcinoma (HT-29), non-small cell lung carcinoma (A549), cervix carcinoma (HeLa) and breast adenocarcinoma (MDA-MB-231) cells were grown in RPMI (HT29) or DMEM (A549, HeLa, MDA-MB-231) medium (Gibco, Milano, Italy). Both media were supplemented with 115 units/mL of penicillin G (Gibco, Milano, Italy), 115 μg/mL of streptomycin (Invitrogen, Milano, Italy) and 10% fetal bovine serum (Invitrogen, Milano, Italy). All cell lines were grown at 37 °C in a humidified 5% CO2 atmosphere. The cells were grown in 2 mL of complete medium.
(§2) Stock solutions were prepared for each compound by dissolving in DMSO at the final concentration of 10 mM.
(§3) The cells were seeded in 96-well plates at the appropriate density for each cell line. The respective cell line densities used for the antiproliferative assay were HeLa and HT29 5000 cells/well, A549 4000 cells/well and MDA-MB-231 7000 cells/well. The total volume of medium was 100 µL. After 24 h, the cells were treated by performing serial 5-fold dilutions of the tested compounds starting from a concentration of 10 μM. All experimental conditions were tested in triplicate for statistical analysis. After 72 h of incubation, 10 μL of 100 μg/mL resazurin solution was added to each well and the plate was re-incubated for 3–4 h. The fluorescence of the wells in each plate was monitored using a Spark 10M spectrophotometer (Tecan Group Ltd., Mannedorf, Switzerland) with a 535 nm excitation wavelength and a 600 nm emission wavelength.

The test system of assay [2] is Bovine brain tubulin. Description: Inhibition of tubulin polymerization (turbidimetric assembly assay). Type of assay: biochemical. The procedure:
Bovine brain tubulin was purified as described previously. To evaluate the effects of the compounds on tubulin assembly in vitro [80], varying concentrations were preincubated with 10 μM tubulin in 0.8 M monosodium glutamate (pH 6.6) at 30 °C and the reaction mixtures then cooled to 0 °C. After addition of GTP, the mixtures were transferred to 0 °C cuvettes in Beckman Coulter (Brea, CA, USA) DU-7400/DU-7500 recording spectrophotometers equipped with electronic temperature controllers and warmed to 30 °C, and the assembly of tubulin was observed turbidimetrically. […] Inhibition of colchicine binding to tubulin was measured as described before, except that the reaction mixtures contained 0.5 μM tubulin and 5 μM each of [^3H]colchicine and test compound. Only one DEAE-cellulose filter was used per sample, and filtration was by gravity.
Bovine brain tubulin (see ref. [79] for details of purification) was used to examine effects on tubulin polymerization and colchicine binding. Briefly, in the polymerization experiments, different compound concentrations were preincubated with 10 µM tubulin for 15 min at 30 °C and cooled on ice. After GTP was added to each reaction mixture, the samples were transferred to 0 °C cuvettes in recording spectrophotometers with electronic temperature controllers. The temperature was raised to 30 °C over about 30 s, and turbidity development was followed for 20 min at 350 nm. […] In the current studies, [^3H]colchicine (from American Radiolabeled Corp., St. Louis, MO) binding was measured after 10 min at 37 °C. Reaction mixtures contained 0.5 µM tubulin and 5.0 µM each of the [^3H]colchicine and the potential inhibitor, and a single DEAE-cellulose filter was used for each sample, with gravity filtration.

Assay [3] deals with cdc2 (Y15). Put plainly: Western blot analysis. It is filed as cell-based, human. The following applies: HeLa, 24 h. The procedure: (§4) Hela cells treated with the test compounds were harvested by centrifugation and then lysed with 0.1% (v/v) Triton X-100 containing RNase A at 0 °C. The protein content of the solutions was measured and analyzed as described previously. The antibodies directed against cyclin B, cdc2 (Y15), ATR,Bcl-2, cleaved caspase-9 (D330) and actin were purchased from Cell Signaling. The membranes were visualized using ECL select (GE Healthcare, Uppsal, Sweden), and images were acquired using an Uvitec-Alliance imaging system.
A general note: A western blot detects proteins with antibodies after separation by electrophoresis.

In assay [4] the test system is Bcl-2. Description: Western blot analysis. It is filed as cell-based, human. The conditions noted are these: HeLa, 24 h. The protocol: as §4
Assay [5] has as its system ATR. Put plainly: Western blot analysis. Type of assay: cell-based, human. The conditions noted are these: HeLa, 24 h. The procedure:
as §4

Assay [6] relates to cyclin B. Put plainly: Western blot analysis. It is filed as cell-based, human. The following applies: HeLa, 24 h. The protocol:
as §4

Assay [7] has as its system cleaved caspase-9 (D330). Description: Western blot analysis. The following applies: HeLa, 24 h, 25 and 50 nM. It is filed as cell-based, human. The procedure: as §4
Assay [8] deals with HT29. Put plainly: In vitro cell growth inhibition, resazurin viability assay. Type of assay: cell-based, human. The protocol: as §1, §2, §3
Assay [9] concerns MDA-MB-231. The assay is described as above. It is filed as cell-based, human. The procedure: as §1, §2, §3
In assay [10] the test system is A549. Described as above. Type of assay: cell-based, human. The procedure:
as §1, §2, §3

Assay [11] relates to HeLa. Described as above. Type of assay: cell-based, human. The protocol: as §1, §2, §3
For assay [12], the system named is HeLa cells. Description: Mitochondrial potential, JC-1 flow cytometry. It is filed as cell-based, human. The conditions noted are these: 24 h treatment, increased further at 48 h. The procedure:
The analysis of the mitochondrial potential was carried out by flow cytometric analysis. Briefly, the cells treated with the test compound were labeled with the JC-1 dye as previously described. The labeled cells were analyzed using the Coulter Cytomics FC500 (Beckman Coulter) in the FL1 and FL2 channel, respectively.
On the technique in general: A flow cytometer gives signals particle by particle.

Turning to `COc1cc(-c2ccnc3nc(Nc4ccc(C)cc4)nn23)cc(OC)c1OC` [Compound 3d, N-(p-Tolyl)-7-(3,4,5-trimethoxyphenyl)-[1,2,4]triazolo[1,5-a]pyrimidin-2-amine], in assay [1] (HeLa, HT-29 and A549 cells), the “fold less active than 2a as antiproliferative agent” value was 1-2 fold. Further, the IC50 was 0.03 to 0.43 µM in assay [1] (in the four tumor cell lines examined, read-out: IC50s, range); 0.03 to 0.043 µM in assay [1] (on HeLa, A549 and HT-29 cancer cells, read-out: IC50 values, range); 0.45 ± 0.1 µM in assay [2] (tubulin at 10 μM, 20 min incubation, read-out: Tubulin Assembly IC50 ± SD); 0.03 ± 0.003 µM in assay [8] (Homo sapiens, HT-29, 72 h, resazurin, mean ± SE); 0.43 ± 0.11 µM in assay [9] (Homo sapiens, MDA-MB-231, 72 h, resazurin, mean ± SE); 0.043 ± 0.024 µM in assay [10] (Homo sapiens, A549, 72 h, resazurin, mean ± SE). The IC50 in assay [11] (Homo sapiens, 72 h, resazurin, mean ± SE) turned out to be 0.038 ± 0.009 µM. Moreover, in [1] (antiproliferative agent), the “fold more potent than the 7-(3′,4′,5′-trimethoxyanilino) counterpart” value is listed as 4–30 fold. For the same molecule, the “fold more active than CA-4 as inhibitor of tubulin assembly” value in [2] amounted to 2 fold. Also, the “fold more potent than 2a as inhibitor of tubulin assembly” value in assay [2] is listed as about 2 fold. Moreover, the “cdc2 phosphorylation (Y15)” value in assay [3] is listed as “significant reduction in cdc2 phosphorylation (Y15)”. Further, in assay [4], the Bcl-2 expression result was “reduction in Bcl-2 expression starting at 10 nM”. For the same molecule, the “ATR phosphorylation (Ser428)” value in assay [5] was “considerable increase in ATR phosphorylation (Ser428)”. The “cyclin B expression” value in assay [6] is recorded as “increase in cyclin B expression”. For the same molecule, in [7], the caspase-9 cleavage result is listed as “appearance of the cleaved fragment of caspase-9”. Further, the “fold greater activity than CA-4” value in [8] (HT-29 cells) is on record as 100 fold. Also, the “fold less potent than CA-4” value in [9] (MDA-MB-231 cells) is recorded as 100 fold; in [11] (HeLa cells) it was 10 fold. The “fold more potent than CA-4” value in assay [10] (A549 cells) turned out to be 4 fold. The “mitochondrial depolarization (JC-1 monomers)” value in assay [12] is listed as “significant increase in the percentage of monomers”.

(Values after PMC9415608, “Design, Synthesis and Biological Investigation of 2-Anilino Triazolopyrimidines as Tubulin Polymerization Inhibitors with Anticancer Activities” (Pharmaceuticals, 2022).)
